Data published in paper PMC5198778 (MedChemComm, 2016).
Each block holds one compound with its values, some of them ahead of it.

How the values were obtained:
CARM1 = target: T1, CARM1 (Homo sapiens, UniProt Q86X55); assay: Mechanism of action; type: biochemical; conditions: IC50 against CARM1 with increasing peptide substrate or SAM concentrations
T1 sequence (Q86X55 1-608): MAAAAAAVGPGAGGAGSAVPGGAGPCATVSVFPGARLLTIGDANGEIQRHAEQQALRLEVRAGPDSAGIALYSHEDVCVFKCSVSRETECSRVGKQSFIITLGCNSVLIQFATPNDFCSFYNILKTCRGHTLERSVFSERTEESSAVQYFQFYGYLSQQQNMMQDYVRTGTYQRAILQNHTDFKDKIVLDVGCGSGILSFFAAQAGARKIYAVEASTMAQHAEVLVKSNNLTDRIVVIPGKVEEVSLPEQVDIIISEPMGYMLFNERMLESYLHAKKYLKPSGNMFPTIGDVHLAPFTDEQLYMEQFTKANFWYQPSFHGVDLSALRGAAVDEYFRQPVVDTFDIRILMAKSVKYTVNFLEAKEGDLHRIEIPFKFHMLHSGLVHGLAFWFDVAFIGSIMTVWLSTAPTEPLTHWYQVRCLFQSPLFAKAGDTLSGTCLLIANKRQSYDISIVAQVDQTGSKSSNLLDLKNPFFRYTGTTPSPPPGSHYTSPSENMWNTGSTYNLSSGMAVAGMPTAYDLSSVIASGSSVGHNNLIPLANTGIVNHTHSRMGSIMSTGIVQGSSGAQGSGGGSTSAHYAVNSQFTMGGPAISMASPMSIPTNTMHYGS

all type I PRMTs = conditions: cited from earlier work
[1] = system: type II and type III PRMTs as well as other methyltransferases; conditions: cited from earlier work
PRMT8 = PRMT8 (Homo sapiens, UniProt Q9NR22); assay: PRMT8 biochemical inhibition assay
PRMT8, sequence (Q9NR22 whole entry, species assumed): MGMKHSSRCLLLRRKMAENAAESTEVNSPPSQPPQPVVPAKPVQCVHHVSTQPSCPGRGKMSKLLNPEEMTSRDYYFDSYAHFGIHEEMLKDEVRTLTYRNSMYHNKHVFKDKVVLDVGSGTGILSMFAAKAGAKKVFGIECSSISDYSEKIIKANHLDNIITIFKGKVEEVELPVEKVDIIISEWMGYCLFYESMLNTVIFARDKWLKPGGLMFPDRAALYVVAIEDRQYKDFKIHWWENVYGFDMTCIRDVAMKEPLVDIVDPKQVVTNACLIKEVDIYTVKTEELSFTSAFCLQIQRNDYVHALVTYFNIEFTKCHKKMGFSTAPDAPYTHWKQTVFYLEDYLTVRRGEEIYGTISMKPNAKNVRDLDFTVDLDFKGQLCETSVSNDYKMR

other PRMTs = assay: Activity against other PRMTs; type: biochemical; conditions: PRMTs other than CARM1, PRMT6 and PRMT8

mechanism of action versus cofactor SAM and peptide substrate (CARM1): noncompetitive
Structure (SMILES): CNCCN1CCC(NCc2cccc(Br)c2)CC1 [Compound 9]

Structure (SMILES): CC(C)Oc1ccc(-c2c[nH]cc2CN(C)CCN)cc1 [MS023]
activity against all type I PRMTs (all type I PRMTs): potent | activity against type II and type III PRMTs and other methyltransferases [1]: inactive

IC50 (PRMT8): 1200 nM
Structure (SMILES): CNCCN1CC(OCc2cccc(OC(F)(F)F)c2)C1 [Compound 6]
activity against other PRMTs (other PRMTs): inactive
